ChEMBL document CHEMBL1157539, “Thousands of chemical starting points for antimalarial lead identification” (Nature, 2010)

Tested on: Plasmodium falciparum
Assay: GSK_TCMDC: Inhibition of Plasmodium falciparum 3D7 in whole erythrocytes, using parasite LDH activity as an index of growth.
Type: functional, organism-based

Compound	XC50 (Plasmodium falciparum, 3D7) [µM]	XC50 [µM]
Nc1nccc(-c2ccc3c(-c4cccc(F)c4)cnc(N)c3c2)n1	1.02	
CC(C)c1ccc(OCC(O)CN(C)C(C)C(O)c2ccccc2)c(Br)c1 (stereo not given)	0.815	
CCCCCSc1cc(O)c(C(CNC)C(C)C)cc1OC (stereo not given)	0.163	
Cc1c(N)ccc2[nH]c(-c3ccc(N)cc3)nc12	1.21	
CS(=O)(=O)c1cc2c(Nc3ccc(N4CCOCC4)cc3)c(C(N)=O)cnc2cc1Br	0.249	
CCCCCCCN1CCC(NC(=O)Nc2ccnc3ccc(OC)cc23)C(C(=O)OCC)C1 (stereo not given)	0.426	
O=C(Nc1ccc(Cl)c(Cl)c1)N1CCC(NCc2cccc([N+](=O)[O-])c2)CC1	0.763	
CC(C)NCc1cccc(-c2ccc(NS(=O)(=O)c3cccc4cccnc34)cc2)c1	1.08	
O=C(/C=C/c1ccc([N+](=O)[O-])cc1)NC1CCC(CN2CCC(c3c[nH]c4ccccc34)CC2)CC1 (stereo not given)	0.794	0.835
O=C(Nc1ccc(-c2ccc(-c3nc4ccccc4[nH]3)s2)cc1)c1ccncc1	0.789	
Cc1ccccc1C1CCN(c2ccc(C(=O)NC3CC3)cn2)CC1	0.846	
CN1CCC(NCc2ccc(-c3cccc(S(=O)(=O)NCCc4ccccn4)c3)cc2)CC1	0.993	
COc1ccc(-c2ccc(S(=O)(=O)Nc3cc4c(cc3OC(C)C)CCN(C)CC4)cc2)cc1	0.686	
CCOc1ccc(CN(CCc2ccc3c(c2)OCO3)Cc2cc(OC)ccc2O)cc1	0.753	
Cc1cccc(Nc2nccc(Nc3cccc(C(=O)NCCN4CCOCC4)c3)n2)c1	1.42	
C[C@@H](COc1ccc(-c2ccccc2)cc1)CON1C(N)=NC(N)=NC1(C)C	0.0032	
N=C(N)c1ccc(Oc2ccc(C(=N)N)cc2)cc1	0.317	
CCc1c[nH]c2c(N3CCCS3(=O)=O)cc(C(=O)N[C@@H](Cc3ccccc3)[C@H](O)CNC3CCCCC3)cc12	0.774	
COc1ccc(OC)c(-c2ccc(O)c(CNCC(C)c3ccccc3)c2)c1 (stereo not given)	0.933	
O=C(Nc1cccc(-c2csc(NC(=O)c3ccc4ccccc4c3)n2)c1)c1ccc2ccccc2c1	0.711	
CN1CCCc2ccc(NC(=O)C=Cc3ccc(-c4ccc(F)cc4F)o3)cc2C1	0.522	
CC(C)(C)Oc1ccc(C[C@@H]2NC3(C(=O)N(Cc4ccc(Cl)c(Cl)c4)c4ccccc43)C3C(=O)N(c4ccc(Br)cc4)C(=O)C32)cc1 (stereo not given in full)	1.04	
Cc1cc(NC(=O)c2cccs2)ccc1OC1CCN(Cc2ccc(F)cc2)C1 (stereo not given)	0.669	
CCN(CC)CCCC(C)N=c1cc(C=Cc2ccccc2Cl)[nH]c2cc(Cl)ccc12 (stereo not given)	0.805	
CC(=O)Nc1ncc(C(=O)Nc2cccc(-c3ccc(-c4nc5ccccc5[nH]4)cc3)c2)s1	0.669	

Compound	XC50 (Plasmodium falciparum, 3D7) [µM]	XC50 [µM]
Cc1[nH]c(C)c(-c2ccc(-c3ccccc3F)nc2)c(=O)c1Cl	0.25	
CCc1ccc(NC(=O)C=NNC(=N)N)cc1	0.902	
Cc1cccc2nc(-c3ccc(-c4ccc(CN5CCN(c6cnccn6)CC5)cc4)s3)[nH]c12	0.75	
COc1ccc(-n2ccnc2SCC(=O)Nc2cc(C)ccc2C)c(OC)c1	0.205	
Cc1nc(C)c(CC(=O)Nc2cccc(-c3cccc(-c4nc5cc(C(F)(F)F)ccc5[nH]4)c3)c2)s1	0.827	
CCN1CCC(NCc2ccc(-c3ccc(Cl)cc3)cc2)CC1	1.02	
Cc1cccc2[nH]c(-c3cc(-c4cn[nH]c4)cnc3N)nc12	0.221	
COc1ccc2[nH]c(C)cc(=NN=Cc3ccccc3)c2c1	1.03	
Fc1cccc(Nc2nc(NCCc3ccc(Cl)cc3)nc(Nc3cccc(F)c3)n2)c1	1.07	
CCCC(C)N(Cc1ccc(C(C)(C)C)cc1)C(=O)c1cccc(C#N)c1 (stereo not given)	1.05	
COc1ccc(C=NN=c2cc[nH]c3ccccc23)c2ccccc12	0.696	
c1cncc(Oc2ccc(Nc3ccnc4cc(-c5cccc(CN6CCCCC6)c5)ccc34)cc2)c1	0.124	
COc1cc(C(F)(F)F)cc2[nH]c(CNCCCNc3nc4ccccc4[nH]3)cc12	0.28	
N#Cc1ccc(N[C@@H](CC2CCCCC2)C(=O)N[C@@H]2CCCc3ccccc32)c2ccccc12	0.728	
CCCCCCCN1CC[C@@H](CCCc2ccnc3ccc(OC)cc23)[C@@H](CNC)C1	0.211	
NCC1CCCN1Cc1ccc(-c2cccc(-c3nc4cc(C(F)(F)F)ccc4[nH]3)c2)cc1 (stereo not given)	0.833	
CCCCCCC(C)c1cc(O)c2c(c1)OC(=O)CC2(CC)c1ccccn1 (stereo not given)	0.335	
Clc1ccc(-c2ccc(CNCCCN3CCCC3)cc2)cc1	1.06	
COc1ccc2ncc(F)c(CCN3C4CCC3CC(NCc3cc5c(cn3)OCS5)C4)c2n1 (stereo not given)	0.923	
COc1ccc(C(=O)N2CCC(C(=O)NC(C)c3ccc(-n4ccnc4)cc3)CC2)c2ccccc12 (stereo not given)	1.13	
Cc1[nH]c2ccc([N+](=O)[O-])cc2c1C1=CCN(C)CC1	0.335	
O=C(Nc1ccc(N2CCCCC2)c(Cl)c1)c1nc[nH]n1	0.449	
CCCCCN1CCC(CNS(=O)(=O)c2ccc(C(=O)Nc3cccc(C(F)(F)F)c3)cc2)CC1	0.747	
CN(C)CCNC(=O)c1cc2c(-c3ccc(Cl)cc3)nn(C)c2s1	0.665	
FC(F)(F)c1ccc2[nH]c(-c3ccc(-c4cccc(CNCC5CCCO5)c4)s3)nc2c1 (stereo not given)	0.367	

Compound	XC50 (Plasmodium falciparum, 3D7) [µM]	XC50 [µM]
O=C(NC1CCC1)C1CCN(C(c2ccccc2)c2cc(F)cc(F)c2)CC1 (stereo not given)	0.797	
COc1cc(-c2ccc(-c3cnc(N)nc3OC)[nH]2)cc(OC)c1OC	0.729	
COc1cccc2c(N/N=C/c3ccccc3[N+](=O)[O-])cc(C)nc12	0.424	
O=C(C=Cc1ccc(Cl)c(Cl)c1)NCCCCCN1CCC(CCNC(=O)C(c2ccccc2)c2ccccc2)CC1	1.01	
COc1ccccc1CNC(=O)c1nn(-c2ccc(Cl)cc2)c(=O)c2ccccc12	0.294	
CCCc1cc(NC2CCN(C)CC2)nc(Nc2cccc(OC)c2)n1	0.765	
N=C(N)c1ccc(NC(=O)c2cc(Sc3ccc(O)c(C(=O)Nc4ccc(C(=N)N)cc4)c3)ccc2O)cc1	0.122	
Fc1cc(Cl)ccc1Nc1ccnc2cc(-c3ccc(CN4CCNCC4)o3)ccc12	0.277	
Cc1cccc2nc(-c3cccc(-c4cccc(CNCc5ccc(S(C)(=O)=O)cc5)c4)c3)[nH]c12	0.299	
COc1cc(NC(=O)/C=C/c2cccc3cc[nH]c23)ccc1OCCN(C(C)C)C(C)C	0.27	
COc1ccc2nccc(N3CCC(SCCNS(=O)(=O)c4ccc5c(c4)NC(=O)CS5)C3)c2n1 (stereo not given)	1.58	
CCOc1c(Br)cc(C)cc1CNCCCNc1nc2ccccc2[nH]1	0.666	
CN(C)CCc1c[nH]c2ccc(C(=O)Nc3ccc(-c4ccncc4)cc3)cc12	0.567	
CCN(CC)CCOc1ccc(C(O)(C#CC(O)(c2ccc(C)cc2)c2ccc(OCCN(CC)CC)cc2)c2ccc(C)cc2)cc1 (stereo not given)	0.903	
CCn1cc(C=C2Oc3c(ccc(O)c3CN3CCCCC3C)C2=O)c2ccccc21 (stereo not given)	1.02	
O=C(/C=C/c1ccc(Cl)c(Cl)c1)NCC1CCN(Cc2ccc(O)cc2)CC1	0.694	
O=C(Nc1cccc(N2CCC(NCc3cccnc3)CC2)c1)c1cccc(C(F)(F)F)c1	0.97	
Cc1ccc(CNC(=O)[C@H](Cc2ccccc2)Nc2cc(C)nc(NCCc3ccc(F)cc3)n2)cc1	0.98	
CC(CN1CCN(C)CC1)C(=O)Nc1ccc(-c2ccc(-c3nc4cc(C(F)(F)F)ccc4[nH]3)cc2)cc1 (stereo not given)	0.415	
Cc1cc(C(=O)Nc2ccc3c(c2)CCN3C2CCN(Cc3ccc4nsnc4c3)C2)no1 (stereo not given)	0.641	
Nc1nc(N)c2c(ccc3c2cnn3Cc2cccnc2)n1	0.0481	
C=C[C@H]1CN(CCCCCCC)CC[C@H]1CC(O)Cc1ccnc2cc(O)c(OC)cc12 (stereo not given in full)	0.818	
Fc1cccc(COc2ccc(Nc3ncnc4cc(/C=C/[C@@H]5CCCN5)sc34)cc2Cl)c1	0.592	
CC(Cc1ccc(CNC(=O)NCc2ccc(CC(C)NCCc3cccc(Cl)c3)cc2)cc1)NCCc1cccc(Cl)c1 (stereo not given)	0.685	
NCc1ccc(CNCc2cccc(-c3cccc(-c4nc5cc(F)ccc5[nH]4)c3)c2)cc1	0.308	

Compound	XC50 (Plasmodium falciparum, 3D7) [µM]	XC50 [µM]
Cc1cccc(C(=O)Nc2ccnc(N(C)CCCN(C)Cc3cccc(O)c3)c2)c1	0.967	
Cc1cc(N2CCCC2)nc(Nc2ccc(NC(=O)c3cccc(F)c3)cc2)n1	0.182	
CCNc1cc(C(=O)N[C@@H](Cc2ccccc2)[C@H](O)CNCc2ccc3c(c2)OCCO3)cc(N2CCCCS2(=O)=O)c1	1.35	
NC(=O)c1ccc(-c2ccc3ccnc(N)c3c2)cc1	0.419	
COc1ccc(NC(=O)c2ccc(OCCCCCCCOc3ccc(C(=O)Nc4ccc(OC)c(N5CCN(C)CC5)c4)cc3)cc2)cc1N1CCN(C)CC1	0.598	
CCOc1cc(Cc2cnc(N)nc2N)cc(OCC)c1OCCCCC(=O)OC	0.0448	
c1ccc(-c2nnc(-c3ccccn3)nc2NC2CCCCC2)cc1	0.91	
COc1ccc2nccc([C@@H](O)CN3CCC(NCCOc4ccc(F)cc4[N+](=O)[O-])CC3)c2c1	0.117	
COc1ccc(C[C@H](N)C(=O)N[C@H]2[C@@H](O)[C@H](n3cnc4c(N(C)C)ncnc43)O[C@@H]2CO)cc1	0.299	
CC(C)(C)OC(=O)N[C@@H](CS(=O)(=O)CCNC(=N)COCc1ccccc1)C(=O)OC(C)(C)C	0.821	
O=c1cc(NCCCNCc2cccc(I)c2)[nH]c2ccccc12	1.02	
N#Cc1cccc(C(O)CN(Cc2ccccc2)Cc2ccccc2)c1 (stereo not given)	1.27	
COc1ccc(N(c2nc(-c3cc(Cl)ccc3Cl)cs2)C2CCNCC2)cc1	1.09	
C=C(C)CSc1nc2c(c(=O)n1CCc1ccccc1)C1(CCCC1)Cc1ccccc1-2	0.607	
Oc1ccc(-c2cncc(NCc3ccc(F)c(F)c3)c2)cc1	0.768	
Cc1cc2nc(-c3ccc(SCC(=O)Nc4ccc5c(c4)OCCO5)nc3)[nH]c2cc1C	0.989	
COc1cccc(-c2cc(C(=O)NC3CCC(N4CCC(c5ccccc5C)CC4)CC3)[nH]n2)c1 (stereo not given)	1.12	
Cc1cccc2nc(-c3cccc(-c4cccc(NC(=O)C(C)CN5CCN(C)CC5)c4)c3)[nH]c12 (stereo not given)	0.537	
Cc1ccc(Nc2nccc(Nc3ccc4c(C)n[nH]c4c3)n2)cc1F	0.785	
CC(=O)N(Cc1ccc(CC(C)NCCc2cccc(Cl)c2)cc1)Cc1ccc(CC(C)NCCc2cccc(Cl)c2)cc1 (stereo not given)	0.783	
COc1ccc2nccc([C@@H](O)CN3CCC(NCCOc4cccc(F)c4F)CC3)c2c1	0.244	
CC1(C)N=C(N)N=C(N)N1OCCc1ccc2ccccc2c1	0.0032	
COC(=O)c1cccc(CNCc2cccc(-c3ccc(-c4nc5cccc(C)c5[nH]4)s3)c2)c1	0.211	
Oc1ccc2[nH]c(-c3cccc(F)c3)nc2c1CN1CCC(N2CCCC2)CC1	0.184	
